Data published in patent EP1000039B1 (Wyeth Holdings Corporation, priority 1997, dated 1999).
≈ marks a conversion by molar mass, not a printed value. Like-named read-outs stand apart in the source and are kept apart here.

Columns and labels:
[1] = target: T1, His-tagged cytoplasmic domain of EGFR (Homo sapiens, UniProt P00533); experiment: Inhibition of Epidermal Growth Factor Receptor Kinase (EGF-R) using recombinant enzyme, RR-SRC peptide phosphorylation; format: biochemical
T1 construct: containing the EGFR cDNA encoding amino acids 645 - 1186 preceded by Met-Ala-(His)6; Met-Ala-(His)6 (N); made in house; host or cells: Sf9 insect cells, recombinant baculovirus vHcEGFR52
T1 sequence (P00533 669-1210): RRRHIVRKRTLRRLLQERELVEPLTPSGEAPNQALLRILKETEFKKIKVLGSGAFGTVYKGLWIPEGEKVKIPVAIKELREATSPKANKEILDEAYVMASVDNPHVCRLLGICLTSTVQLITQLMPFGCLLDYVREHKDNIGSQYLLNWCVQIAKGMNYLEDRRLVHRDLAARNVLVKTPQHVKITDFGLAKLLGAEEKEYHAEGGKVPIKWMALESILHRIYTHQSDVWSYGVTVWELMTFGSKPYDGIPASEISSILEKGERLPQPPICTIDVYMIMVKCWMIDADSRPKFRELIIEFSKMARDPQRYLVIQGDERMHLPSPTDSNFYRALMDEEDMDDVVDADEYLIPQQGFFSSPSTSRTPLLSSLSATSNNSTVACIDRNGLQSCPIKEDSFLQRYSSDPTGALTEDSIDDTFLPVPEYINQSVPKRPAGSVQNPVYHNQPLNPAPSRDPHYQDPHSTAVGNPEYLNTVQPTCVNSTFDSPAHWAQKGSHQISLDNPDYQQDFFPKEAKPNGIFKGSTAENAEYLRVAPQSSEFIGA
Procedure: The enzyme used in this assay is the His-tagged cytoplasmic domain of EGFR. […] Sf9 cells in 100 mm plates were infected at an moi of 10 pfu/cell and cells were harvested 48 h post infection. A cytoplasmic extract was prepared using 1% Triton X-100 and applied to Ni-NTA column. After washing the column with 20 mM imidazole, HcEGFR was eluted with 250 mM imidazole (in 50 mM Na2HPO4, pH 8.0, 300 mM NaCl). Fractions collected were dialyzed against 10 mM HEPES, pH 7.0, 50 mM NaCl, 10% glycerol, 1ug/mL antipain and leupeptin and 0. 1 mM Pefabloc SC. The protein was frozen in dry ice/methanol and stored -70°C.
For the enzyme reaction, 10 uL of each inhibitor (at various concentrations) were added to each well of a 96-well plate. To this was added 3 uL of enzyme (1: 10 dilution in 10mM HEPES, pH 7.4 for final conc. of 1:120). This was allowed to sit for 10 min on ice and was followed by the addition of 5 ul peptide (80 uM final conc.), 10ul of 4X Buffer (Table A), 0.25 uL ^33P-ATP and 12 uL H2O. The reaction was allowed to run for 90 min at room temperature and was followed by spotting the entire volume on to precut P81 filter papers. The filter discs were washed 2X with 0.5% phosphoric acid and radioactivity was measured using a liquid scintillation counter.

[2] = test system: A2780DDP; experiment: Inhibition of Cancer Cell Growth (Sulforhodamine B); format: cell-based, Human; conditions: 48 hours exposure; for IC50: Homo sapiens, read-out: Inhibition of Cancer Cell Growth as Measured by Cell Number (IC50) A2780DDP
Procedure: (§1) After 48 hours exposure to test compounds, cells were fixed with trichloroacetic acid, and stained with Sulforhodamine B. After washing with trichloroacetic acid, bound dye was solubilized in 10 mM Tris base and optical density was determined using plate reader. Under conditions of the assay the optical density is proportional to the number of cells in the well. […] The test procedure is described in details by Philip Skehan et. al. J.Natl. Canc. […]

[3] = test system: A2780S; experiment: as above; format: cell-based, Human; conditions: 48 hours exposure; for IC50: Homo sapiens, read-out: Inhibition of Cancer Cell Growth as Measured by Cell Number (IC50) A2780S
Procedure: as §1

[4] = test system: A431; experiment: as above; format: cell-based, Human; conditions: for IC50: Homo sapiens, A-431, 48 hours exposure, read-out: Inhibition of Cancer Cell Growth as Measured by Cell Number (IC50) A431
Procedure: as §1

[5] = test system: LOX; experiment: as above; format: cell-based, Human; conditions: 48 hours exposure; for IC50: Homo sapiens, read-out: Inhibition of Cancer Cell Growth as Measured by Cell Number (IC50) LOX
Procedure: as §1

[6] = test system: MCF7; experiment: as above; format: cell-based, Human; conditions: 48 hours exposure; for IC50: Homo sapiens, read-out: Inhibition of Cancer Cell Growth as Measured by Cell Number (IC50) MCF7
Procedure: as §1

[7] = test system: SKBR3; experiment: as above; format: cell-based, Human; conditions: for IC50: Homo sapiens, SK-BR-3, 48 hours exposure, read-out: Inhibition of Cancer Cell Growth as Measured by Cell Number (IC50) SKBR3
Procedure: as §1

[8] = test system: SW620; experiment: as above; format: cell-based, Human; conditions: for IC50: Homo sapiens, SW-620, 48 hours exposure, read-out: Inhibition of Cancer Cell Growth as Measured by Cell Number (IC50) SW620
Procedure: as §1

[9] = test system: MB435; experiment: as above; format: cell-based, Human; conditions: 48 hours exposure; for IC50: Homo sapiens, read-out: Inhibition of Cancer Cell Growth as Measured by Cell Number (IC50) MB435
Procedure: as §1

[10] = recombinant enzyme, average of the number of tests, read-out: IC50

Compound	IC50 [1, 10]	IC50 [2]	IC50 [3]	IC50 [4]	IC50 [5]	IC50 [6]	IC50 [7]	IC50 [8]	Inhibition of Cancer Cell Growth as Measured by Cell Number (IC50) A2780DDP [2]	Inhibition of Cancer Cell Growth as Measured by Cell Number (IC50) A2780S [3]	Inhibition of Cancer Cell Growth as Measured by Cell Number (IC50) A431 ([4]; 48 hours exposure)	Inhibition of Cancer Cell Growth as Measured by Cell Number (IC50) LOX [5]	Inhibition of Cancer Cell Growth as Measured by Cell Number (IC50) MB435 [9]	Inhibition of Cancer Cell Growth as Measured by Cell Number (IC50) MCF7 [6]	Inhibition of Cancer Cell Growth as Measured by Cell Number (IC50) SKBR3 ([7]; 48 hours exposure)	Inhibition of Cancer Cell Growth as Measured by Cell Number (IC50) SW620 ([8]; 48 hours exposure)	IC50 [1]	IC50 [9]
O=C(/C=C/Cl)Nc1ccc2ncnc(Nc3cccc(Br)c3)c2c1 [Example 47, N-[4-[(3-Bromophenyl)amino]-6-quinazolinyl]-3(E)-chloro-2-propenamide]	0.3 nM	0.197 mg/L (≈ 0.488 µM)	0.01 mg/L (≈ 0.0248 µM)	0.023 mg/L (≈ 0.057 µM)	0.0772 mg/L (≈ 0.191 µM)	1.17 mg/L (≈ 2.9 µM)	0.496 mg/L (≈ 1.23 µM)	0.39 mg/L (≈ 0.966 µM)	–	–	–	–	–	–	–	–	–	–
N-[4-(3-Bromo-phenylamino)-quinazolin-6-yl]-2-morpholin-4-ylmethyl-acrylamide [Example 63]	–	–	–	–	–	–	–	–	4.0 mg/L	0.8 mg/L	0.6 mg/L	3.9 mg/L	4.5 mg/L	17 mg/L	<0.01 mg/L	5.5 mg/L	–	–
CCN1CCN(CC#CC(=O)Nc2ccc3ncnc(Nc4cccc(Br)c4)c3c2)CC1 [Example 28, 4-(4-Ethyl-piperazin-1-yl)-but-2-ynoic acid [4-(3-bromophenylamino)-quinazolin-6-yl]-amide]	–	0.56 mg/L (≈ 1.13 µM)	0.84 mg/L (≈ 1.7 µM)	0.6 mg/L (≈ 1.22 µM)	1.94 mg/L (≈ 3.93 µM)	3.09 mg/L (≈ 6.26 µM)	0.1 mg/L (≈ 0.203 µM)	2.38 mg/L (≈ 4.82 µM)	–	–	–	–	–	–	–	–	5.5 nM	1.61 mg/L (≈ 3.26 µM)
COCCOCC#CC(=O)Nc1ccc2ncnc(Nc3cccc(Br)c3)c2c1 [Example 55, 4-(2-Methoxy-ethoxy)-but-2-ynoic acid [4-(3-bromo-phenylamino)-quinazolin-6-yl]-amide]	2 nM	0.5 mg/L (≈ 1.1 µM)	0.02 mg/L (≈ 0.0439 µM)	0.4 mg/L (≈ 0.879 µM)	0.2 mg/L (≈ 0.439 µM)	5 mg/L (≈ 11 µM)	0.3 mg/L (≈ 0.659 µM)	0.1 mg/L (≈ 0.22 µM)	–	–	–	–	–	–	–	–	–	2.8 mg/L (≈ 6.15 µM)
O=c1c(Nc2ccc3ncnc(Nc4cccc(Br)c4)c3c2)c(N2CCOCC2)c1=O [Example 52, 3-[4-(3-Bromo-phenylamino)-quinazolin-6-ylamino]-4-morpholin-4-yl-cyclobut-3-ene-1,2-dione]	–	41.1 mg/L (≈ 85.7 µM)	27 mg/L (≈ 56.3 µM)	8.42 mg/L (≈ 17.5 µM)	7.6 mg/L (≈ 15.8 µM)	53.1 mg/L (≈ 111 µM)	38 mg/L (≈ 79.1 µM)	> 100 mg/L	–	–	–	–	–	–	–	–	–	26.8 mg/L (≈ 55.8 µM)
C=CS(=O)(=O)Nc1ccc2ncnc(Nc3cccc(Br)c3)c2c1 [Example 82, Ethenesulfonic acid[4-(3-bromo-phenylamino)-quinazolin-6-yl]-amide]	–	0.112 mg/L (≈ 0.276 µM)	0.0626 mg/L (≈ 0.154 µM)	0.025 mg/L (≈ 0.0617 µM)	0.382 mg/L (≈ 0.943 µM)	0.81 mg/L (≈ 2 µM)	0.269 mg/L (≈ 0.664 µM)	0.53 mg/L (≈ 1.31 µM)	–	–	–	–	–	–	–	–	–	–
CCOc1c(Nc2ccc3ncnc(Nc4cccc(Br)c4)c3c2)c(=O)c1=O [Example 48, 3-[4-(3-Bromo-phenylamino)-quinazolin-6-ylamino]-4-ethoxy-cyclobut-3-ene-1,2-dione]	2 nM	3.71 mg/L (≈ 8.45 µM)	4.74 mg/L (≈ 10.8 µM)	3.11 mg/L (≈ 7.08 µM)	3.55 mg/L (≈ 8.08 µM)	5.42 mg/L (≈ 12.3 µM)	3.79 mg/L (≈ 8.63 µM)	2.81 mg/L (≈ 6.4 µM)	–	–	–	–	–	–	–	–	–	5.48 mg/L (≈ 12.5 µM)
O=C(C#CCN1CCOCC1)Nc1ccc2ncnc(Nc3cccc(Br)c3)c2c1 [Example 19, 4-Morpholin-4-yl-but-2-ynoic acid [4-(3-bromo-phenylamino)-quinazolin-6-yl]-amide]	–	3.32 mg/L (≈ 7.12 µM)	4.37 mg/L (≈ 9.37 µM)	0.02 mg/L (≈ 0.0429 µM)	3.55 mg/L (≈ 7.61 µM)	6.36 mg/L (≈ 13.6 µM)	0.003 mg/L (≈ 0.00643 µM)	1.1 mg/L (≈ 2.36 µM)	–	–	–	–	–	–	–	–	50 nM	5.95 mg/L (≈ 12.8 µM)
CN1CCC=C(C(=O)Nc2ccc3ncnc(Nc4cccc(Br)c4)c3c2)C1 [Example 53]	–	4.73 mg/L (≈ 10.8 µM)	2.89 mg/L (≈ 6.59 µM)	0.44 mg/L (≈ 1 µM)	5.62 mg/L (≈ 12.8 µM)	5.09 mg/L (≈ 11.6 µM)	–	–	–	–	–	–	–	–	–	–	60 nM	4.31 mg/L (≈ 9.83 µM)
